The values that follow come from ChEMBL document CHEMBL5380866, “Discovery of Selective P2Y6R Antagonists with High Affinity and In Vivo Efficacy for Inflammatory Disease Therapy” (J Med Chem, 2023).

Active and inactive are the calls of the source. The calls are words filed in the database; no cut-off is given here.

The target of the first assay is T1, P2Y purinoceptor 6 (Homo sapiens, UniProt Q15077). The experiment in a line: Antagonist activity at P2Y6R (unknown origin).
T1 sequence (Q15077 whole entry): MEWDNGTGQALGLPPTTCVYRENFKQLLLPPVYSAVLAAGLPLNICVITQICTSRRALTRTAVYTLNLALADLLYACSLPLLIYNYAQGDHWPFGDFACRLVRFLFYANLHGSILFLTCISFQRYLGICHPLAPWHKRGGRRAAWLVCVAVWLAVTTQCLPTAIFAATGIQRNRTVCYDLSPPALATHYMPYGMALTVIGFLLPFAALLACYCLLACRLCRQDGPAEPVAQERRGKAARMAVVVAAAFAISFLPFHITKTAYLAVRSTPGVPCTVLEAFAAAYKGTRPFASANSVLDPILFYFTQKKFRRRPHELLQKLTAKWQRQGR
Details: not given
Consider `O=S(=O)(O)c1cc(N=C=S)ccc1/C=C/c1ccc(N=C=S)cc1S(=O)(=O)O`, for which the IC50 (commonly the midpoint of a concentration-inhibition curve) was found to be 5.2 µM.

The next assay deals with P2Y purinoceptor 12 (Homo sapiens, UniProt Q9H244). The experiment in a line: Antagonist activity at human P2Y12R expressed in HEK293 cells assessed as inhibition of MeSADP-induced cAMP production preincubated for 0.5 hrs followed by MeSADP stimulation by cAMP-glo analysis. The class given is functional, cell-based.
Chain of P2Y purinoceptor 12 (Q9H244 whole entry): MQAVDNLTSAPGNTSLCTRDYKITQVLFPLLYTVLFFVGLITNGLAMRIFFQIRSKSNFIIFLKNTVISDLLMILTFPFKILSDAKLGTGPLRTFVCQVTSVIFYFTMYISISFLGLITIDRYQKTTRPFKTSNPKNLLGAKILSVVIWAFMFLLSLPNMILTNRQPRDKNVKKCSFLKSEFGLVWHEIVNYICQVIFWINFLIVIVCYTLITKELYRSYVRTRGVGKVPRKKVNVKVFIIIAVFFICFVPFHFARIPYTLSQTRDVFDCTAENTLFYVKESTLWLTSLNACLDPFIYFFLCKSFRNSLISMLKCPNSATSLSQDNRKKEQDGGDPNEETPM
Details: not given
In general terms: cAMP levels reflect the balance of adenylyl cyclase and phosphodiesterase activity.
`CCCSc1nc(N[C@@H]2C[C@H]2c2ccc(F)c(F)c2)c2nnn([C@@H]3C[C@H](OCCO)[C@@H](O)[C@H]3O)c2n1` [TICAGRELOR]: the IC50 is 1400 nM.

A further assay addresses T1, P2Y purinoceptor 6. Nature of the assay: Binding affinity to human recombinant P2Y6R expressed in HEK293 cells at 500 uM pretreated for 1 hrs followed by pulldown using streptavidin agarose resin by Western blot analysis. In kind it is cell-based. Particulars: filed as antagonist.
In the case of `CC(C)(C)n1nc(-c2nc3cc(C(=O)NCCOCCOCCOCCNC(=O)CCCC[C@@H]4SC[C@@H]5NC(=O)N[C@@H]54)ccc3[nH]2)cc1-c1ccco1`, the result was Active.

The target of a further assay is T1, P2Y purinoceptor 6. The experiment in a line: Antagonist activity at human P2Y6R expressed in HEK293 cells assessed as inhibition of UDP-induced IP3 production preincubated for 0.5 hrs followed by UDP stimulation and measured after 12 hrs by ELISA analysis. The class given is functional, cell-based.
Details: not given
(In general: An ELISA detects its analyte on a solid surface through an enzyme-linked reagent.)
With `Cc1ccc2nc(-c3cc(-c4ccccc4)n(C(C)(C)C)n3)oc2c1`, the IC50 is 42.5 nM.

For `CC(C)(C)n1nc(-c2nc3ccccc3s2)cc1-c1ccccc1`, the IC50 came to 314 nM. For the compound `Cc1ccc2oc(-c3cc(-c4ccco4)n(C(C)(C)C)n3)nc2c1`, the IC50 was 202 nM. Still for that read-out and setting: the result for `CC(C)(C)n1nc(-c2nc3ccccc3o2)cc1-c1ccco1` reads 30.8 nM; that for `Cc1ccc2[nH]c(-c3cc(-c4ccccc4)n(C(C)(C)C)n3)nc2c1`, 77.8 nM; that for `Cc1ccc2nc(-c3cc(-c4ccco4)n(C(C)(C)C)n3)oc2c1`, 72.9 nM.

In the case of `CC(C)(C)n1nc(-c2nc3cc([N+](=O)[O-])ccc3[nH]2)cc1-c1ccco1`, the 50% inhibitory concentration (IC50) is 12.6 nM. Still for that read-out and setting: the result for `CC(C)(C)n1nc(-c2nc3ccccc3[nH]2)cc1-c1ccccc1` reads 49.2 nM; that for `Cc1cccc2oc(-c3cc(-c4ccco4)n(C(C)(C)C)n3)nc12`, 94.2 nM; that for `Cc1ccc2oc(-c3cc(-c4ccc[nH]4)n(C(C)(C)C)n3)nc2c1`, 256 nM. On the same count and under the same terms, the result for `CC(C)(C)n1nc(-c2nc3cc(C(F)(F)F)ccc3[nH]2)cc1-c1ccco1` reads 15.2 nM; that for `CC(C)(C)n1nc(-c2nc3cc(F)ccc3[nH]2)cc1-c1ccco1`, 64.1 nM.

Take `CC(C)(C)n1nc(-c2nc3ccccc3o2)cc1-c1ccccc1`: the half-inhibitory concentration (IC50) amounted to 173 nM. Still for that read-out and setting: the result for `CC(C)(C)n1nc(-c2nc3c(Cl)cccc3[nH]2)cc1-c1ccco1` reads 93.5 nM; that for `Cc1ccc2cc(C3CC(c4ccco4)=NN3C(=O)CCC(=O)O)c(Cl)nc2c1` (stereo unspecified), 126 nM. Regarding `CC(C)(C)n1nc(-c2nc3ccccc3[nH]2)cc1-c1ccco1`, the IC50 stood at 159 nM. The same measure, in the same setting: the value for `CC(C)(C)n1nc(-c2nc3cc(OC(F)(F)F)ccc3[nH]2)cc1-c1ccco1` was 128 nM.

Turning to `CC(C)(C)n1nc(-c2nc3cc(Cl)ccc3[nH]2)cc1-c1ccccc1`, the IC50 was 216 nM. Still for that read-out and setting: the result for `O=C(O)CCC(=O)N1N=C(c2nc3cc(Cl)ccc3[nH]2)CC1c1ccco1` (stereo unspecified) reads 457 nM; that for `CC(C)n1nc(-c2nc3ccccc3s2)cc1-c1ccccc1`, 87.8 nM; that for `CC(C)(C)n1nc(-c2nc3cc(Br)ccc3[nH]2)cc1-c1ccco1`, 45.7 nM. On the same count and under the same terms, the result for `S=C=Nc1cccc(NC(=S)NCCCCNC(=S)Nc2cccc(N=C=S)c2)c1` reads 27.5 nM.

For a further assay, the target named is T2, P2Y purinoceptor 14 (Homo sapiens, UniProt Q15391).
T2 sequence (Q15391 whole entry): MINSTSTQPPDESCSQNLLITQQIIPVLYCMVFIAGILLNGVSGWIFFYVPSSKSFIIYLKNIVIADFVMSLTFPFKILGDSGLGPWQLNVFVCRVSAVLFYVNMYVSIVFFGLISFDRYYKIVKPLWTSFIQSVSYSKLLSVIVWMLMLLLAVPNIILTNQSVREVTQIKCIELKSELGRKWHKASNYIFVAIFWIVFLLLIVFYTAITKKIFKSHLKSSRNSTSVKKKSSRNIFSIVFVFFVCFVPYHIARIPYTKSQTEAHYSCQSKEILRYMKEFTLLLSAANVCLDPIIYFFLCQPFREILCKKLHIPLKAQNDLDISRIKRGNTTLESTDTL
The experiment in a line: Antagonist activity at human P2Y14R expressed in HEK293 cells assessed as inhibition of UDPG-induced cAMP production preincubated for 0.5 hrs followed by UDPG stimulation by cAMP-glo analysis. The class given is functional, cell-based.
Details: not given
Regarding `O=C(O)c1cc(-c2ccccc2C2CCNCC2)c2ccc(-c3ccc(C(F)(F)F)cc3)cc2c1`, the IC50 is 5.21 µM.
